From ChEMBL document CHEMBL3217598, “Synthesis, modeling, and crystallographic study of 3,4-disubstituted-1,2,5-oxadiazoles and evaluation of their ability to decrease STAT3 activity” (Medchemcomm, 2010)
The source made the active and inactive calls. The rule behind the calls is not given here.

Key:
[1] = test system: MDA-MB-231; assay: Growth inhibition of human MDA-MB-231 cells assessed as cell proliferation at highest concentration after 24 hrs by WST-1 assay; assay type: functional
[2] = test system: HCT-116; assay: Inhibition of human HCT116 cell proliferation at highest concentration after 48 hrs by WST-1 assay; assay type: functional, cell-based
[3] = test system: SW-620; assay: Growth inhibition of human SW620 cells assessed as cell proliferation at highest concentration after 24 hrs by WST-1 assay; assay type: functional
[4] = test system: HCT-116; assay: Growth inhibition of human HCT116 cells assessed as cell proliferation at highest concentration after 24 hrs by WST-1 assay; assay type: functional
[5] = test system: SW-620; assay: Inhibition of human SW620 cell proliferation at highest concentration after 48 hrs by WST-1 assay; assay type: functional, cell-based
[6] = test system: MDA-MB-231; assay: Inhibition of human MDA-MB-231 cell proliferation at highest concentration after 48 hrs by WST-1 assay; assay type: functional, cell-based
[7] = test system: HCT-116; assay: Induction of apoptosis in human HCT116 cells assessed as increase in cleaved caspase-3 level at 10 uM by western blot analysis; assay type: functional, cell-based
[8] = test system: MDA-MB-468; assay: Growth inhibition of human MDA-MB-468 cells assessed as cell proliferation at highest concentration after 24 hrs by WST-1 assay; assay type: functional
[9] = biological target: Signal transducer and activator of transcription 3 (Homo sapiens) (UniProt P40763); assay: Inhibition of STAT3 in human HCT 116 cells co-transfected with pSTAT3-TA-Luc at 2 uM after 24 hrs by dual luciferase assay; assay type: cell-based
Chain of Signal transducer and activator of transcription 3 (Homo sapiens) (P40763 whole entry): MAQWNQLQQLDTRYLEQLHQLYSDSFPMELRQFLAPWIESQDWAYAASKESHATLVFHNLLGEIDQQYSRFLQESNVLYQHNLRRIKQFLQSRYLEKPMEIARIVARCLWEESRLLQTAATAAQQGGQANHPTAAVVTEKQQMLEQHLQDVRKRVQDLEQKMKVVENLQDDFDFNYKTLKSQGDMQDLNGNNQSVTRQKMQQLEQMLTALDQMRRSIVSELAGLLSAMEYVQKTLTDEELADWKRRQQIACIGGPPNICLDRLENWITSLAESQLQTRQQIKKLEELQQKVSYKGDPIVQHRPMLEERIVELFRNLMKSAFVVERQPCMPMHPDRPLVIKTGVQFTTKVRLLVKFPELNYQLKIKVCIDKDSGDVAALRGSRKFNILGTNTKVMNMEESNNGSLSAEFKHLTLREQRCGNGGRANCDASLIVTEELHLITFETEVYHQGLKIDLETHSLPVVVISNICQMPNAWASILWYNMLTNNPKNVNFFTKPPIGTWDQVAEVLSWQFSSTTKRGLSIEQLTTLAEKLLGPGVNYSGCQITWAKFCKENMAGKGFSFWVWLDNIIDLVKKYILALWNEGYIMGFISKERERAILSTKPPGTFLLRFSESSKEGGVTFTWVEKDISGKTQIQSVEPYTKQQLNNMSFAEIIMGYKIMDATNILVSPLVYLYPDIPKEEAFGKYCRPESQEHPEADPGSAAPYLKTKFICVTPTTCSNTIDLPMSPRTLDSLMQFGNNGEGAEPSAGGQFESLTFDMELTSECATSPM

[10] = test system: MDA-MB-468; assay: Inhibition of human MDA-MB-468 cell proliferation at highest concentration after 48 hrs by WST-1 assay; assay type: functional, cell-based
[11] = test system: HCT-116; assay: Induction of apoptosis in human HCT116 cells assessed as increase in cleaved PARP level at 10 uM by western blot analysis; assay type: functional, cell-based
[12] = test system: HCT-116; assay: Induction of apoptosis in human HCT116 cells assessed as rounded and floated morphology at 2.5 to 50 uM; assay type: functional, cell-based
[13] = biological target: Signal transducer and activator of transcription 3 (Homo sapiens) (UniProt P40763); assay: Inhibition of STAT3 in human HCT 116 cells co-transfected with pSTAT3-TA-Luc after 24 hrs by dual luciferase assay; assay type: cell-based

Row | inhibition [9] [%] | SMILES | other results
1 | 45 | O=C(Nc1ccc(C(F)(F)F)cc1)Nc1nonc1-c1ccc(Cl)cc1 | growth inhibition (GI) [1]: 50%; inhibition [2]: Active; growth inhibition (GI) [3]: 50%; growth inhibition (GI) [4]: 50%; inhibition [5]: Active; inhibition [6]: Active; Activity [7]: Active; growth inhibition (GI) [8]: 50%; inhibition [10]: Active; Activity [11]: Active; Activity [12]: Active; inhibition [13]: Dose-dependent effect
2 | 14 | O=C(Cc1ccccc1)Nc1nonc1CO | 
3 | -2 | O=S(=O)(Cc1ccccc1)Nc1nonc1CO | 
4 | 2 | Cc1nonc1NC(=O)Nc1ccccc1 | 
5 | 9 | COC(=O)c1nonc1NC(=O)Cc1ccccc1 | 
6 | -3 | O=S(=O)(Nc1nonc1-c1ccc(Cl)cc1)c1ccc(C(F)(F)F)cc1 | 
7 | 6 | Cc1nonc1NC(=O)Cc1ccccc1 | 
8 | 32 | CC(=O)Oc1ccc(-c2nonc2NC(=O)N(C)c2ccc(C(F)(F)F)cc2)cc1 | 
9 | 51 | CN(C(=O)Nc1nonc1-c1ccc(O)cc1)c1ccc(C(F)(F)F)cc1 | 
10 | 8 | CN(C(=O)N(C)c1nonc1-c1ccc(Cl)cc1)c1ccc(C(F)(F)F)cc1 | 
11 | -7 | O=C(Nc1nonc1-c1ccc(Cl)cc1)c1ccc(C(F)(F)F)cc1 | 
12 | 36 | O=C(Nc1ccccc1)Nc1nonc1-c1ccccc1 | 
13 | 25 | CN(C(=O)Nc1nonc1-c1ccc(Cl)cc1)c1ccccc1 | 
14 | 26 | CC(=O)Oc1ccc(-c2nonc2N(C)C(=O)N(C)c2ccc(C(F)(F)F)cc2)cc1 | 
15 | 21 | CN(C(=O)Nc1nonc1-c1ccc(OCc2ccccc2)cc1)c1ccc(C(F)(F)F)cc1 | 
16 | 11 | O=C(Cc1ccccc1)Nc1nonc1-c1ccccc1 | 
17 | 11 | O=C(NCc1ccccc1)Nc1nonc1-c1ccccc1 | 
18 | 6 | Cc1nonc1NS(=O)(=O)Cc1ccccc1 | 
19 | 24 | O=C(Nc1ccc(C(F)(F)F)cc1)Nc1nonc1-c1ccc(O)cc1 | 
20 | 7 | COC(=O)c1nonc1NS(=O)(=O)Cc1ccccc1 | 
